Test results from US20240238368A1, “PEPTIDE FOR PREVENTING AND TREATING FIBROSIS” (NIBEC CO., LTD., priority 2021, published 2024).

How the values were obtained:
[1] = system: bleomycin-induced lung disease; details: bleomycin mice; for fibrous deposition in the lungs (Sirius Red and hematoxylin/phloxine staining) / area of fibrosis (Sirius Red): day 22; for fibrous deposition in the lungs (Sirius Red and hematoxylin/phloxine staining): peptides 30 mg/kg subcutaneously three times a week compared to NT and nintedanib groups, FIG. 8c; for area of fibrosis (Sirius Red): compared to NT group and nintedanib-treated group, P<0.05, FIG. 8d
Description: C57BL/6J mice (male, 7 weeks old) were purchased from Charles River. Mice were anesthetized by intraperitoneal administration of a mixture of Imalgene (ketamine, 100 mg/kg)/Rompun (xylazine, 20 mg/kg), and a total of 50 μl of bleomycin sulfate (1.45 mg/kg, MBcell, CA, USA) was injected intratracheally once, and saline was injected intratracheally in the normal group (day 0). On day 7, mice were divided into groups, each consisting of eight. PBS (NT), SEQ ID NO: 1 (30 mg/kg), and SEQ ID NO: 2 (30 mg/kg) were administered subcutaneously three times a week, and nintedanib (Fluorochem Ref=050741, 100 mg/kg) was administered orally daily. Each of the peptides of SEQ ID NO: 1 and SEQ ID NO: 2 was administered after dissolution in water for injection, and nintedanib was administered after mixing with water containing 0.5% hydroxyethylcellulose (Sigma; lot BCBV5033) and 0.01% Tween 80 (Sigma; lot BCBR6211V). While administering the drug for 21 days, body weight was measured every 2 days, and whether there were other clinical symptoms were checked.
After mice were sacrificed with isoflurane on day 22, lung tissue was excised therefrom and histological analysis was performed. Paraffin was introduced into the lungs, 5 μm paraffin sections were manufactured, Sirius Red staining and hematoxylin/phloxine staining were performed to evaluate the extent of pulmonary fibrosis and inflammation, and the extent of inflammation and fibrosis was observed through microscopy.
In order to quantify the fibrotic change, the area of the red (fibrotic portion) was quantified in the sample stained with Sirius Red.

[2] = system: COL1A2 and COL3A1 gene expression; test: Inhibition of collagen gene expression in cells (real-time PCR); type: cell-based, human; details: IPF patient lung fibroblasts, 10 ng/ml TGF-β1 24 hours, then peptide 200 μM 24 hours; *p<0.05; FIG. 6
Description: The cells were seeded in a 24-well plate and cultured in starvation medium (Dulbecco's modified Eagle medium/F12 without FBS supplemented with 0.1 mM 2-phospho-L-ascorbic acid) for 24 hours. Recombinant Human TGF-β1 Protein (R&D Systems, #240-B-002) was diluted at 20 μg/ml in sterile 4 mM HCl containing 1 mg/ml bovine serum albumin. The cells were cultured for 24 hours in full growth media containing 10 ng/ml TGF-β1. The cells were treated with SEQ ID NO: 1 (200 μM), SEQ ID NO: 2 (200 μM), or nintedanib (10 μM) in fresh medium and cultured for 24 hours. The peptides were dissolved in purified water, nintedanib was dissolved in dimethyl sulfoxide, and the concentration of dimethyl sulfoxide in medium was set to 1%. The medium was removed, followed by washing with DPBS (Welgene, LB001-02) and cell lysis using 1 ml of a trizol reagent (Ambion, 15596). 250 μl of chloroform was added thereto, the tube was stirred, and centrifugation was performed at 10,000 rpm for 15 minutes. After removing the aqueous layer using a pipette, 550 μl of isopropanol (Sigma, 19516) was added and shaken gently. After centrifugation at 15,000 rpm for 25 minutes, isopropanol was removed, and 1 ml of 75% ethanol was added thereto. After removal of ethanol and drying in air, the pellets were dissolved in DEPC water (Invitrogen, AM9915G). The concentration of RNA was measured using a Nano Drop (Thermo Scientific, NanoDrop One, AZY1913798).
(§1) CDNA was synthesized from the extracted RNA using a Maxima First strand CDNA synthesis kit (Thermo Fisher, K1641) according to the manufacturer's protocol. In addition, real-time PCR was performed using QuantStudio 3 (Applied Biosystems, A28132) according to the manufacturer's protocol. PCR amplification was conducted by repeating 50 cycles at 95° C. for 30 seconds, 60° C. for 30 seconds, and 72° C. for 30 seconds.

[3] = system: methionine-choline-deficient (MCD) diet-induced hepatitis and hepatic fibrosis; test: Methionine-choline-deficient diet mouse model (hepatitis and hepatic fibrosis); type: in vivo, C57BL/6J mice; details: MCD diet mice, peptide 20 mg/kg, 12 administrations at 3-day intervals, compared to NT group or GLP-1 agonist (liraglutide 0.2 mg/kg) group; for NAFLD activity score: FIGS. 9b, 9c; for area of fibrosis (Masson's trichrome-positive area): FIGS. 9d, 9e
Description: Male 6-week-old C57BL/6J mice were used, and divided into a normal diet group, a group not treated after feeding MCD diet, groups injected with the peptide of SEQ ID NO: 1 (20 mg/kg) and the peptide of SEQ ID NO: 2 (20 mg/kg), and a positive control group subcutaneously injected with liraglutide (0.2 mg/kg), which is a type of glucagon-like peptide 1 receptor agonist serving as a hepatitis therapeutic agent. After autonomous feeding of MCD diet for 10 weeks, 8 mice were assigned to each group and a therapeutic agent was administered thereto. Peptide and liraglutide were administered once a day, a total of 12 times at 3-day intervals (FIG. 9a). For all animals, body weight was measured immediately before initiation of administration and twice a week throughout the entire test. After the end of the last administration, the animals was anesthetized by intraperitoneal injection of 300 μl of Avertin, blood was collected from the abdominal vena cava by laparotomy, the liver and spleen were removed therefrom, and the weight of the removed organs was measured. Tissues were fixed in a neutral buffered formalin solution for all animals subjected to necropsy, and paraffin blocks were manufactured and sectioned through tissue processing. The tissue sections thus obtained were subjected to H&E staining. The H&E stained specimens were scored for steatosis, ballooning degeneration, and lobular inflammation (Table 3), and the extent of hepatic inflammation (NAFLD activity score) was measured. The tissue sections manufactured in the same manner as in Example 8-2 were stained with Masson's trichrome, and 100× magnification images were obtained with an optical microscope (BX51, Olympus, GER) at 5 randomly designated different sites among all Masson's trichrome-stained slides (300MI CMOS camera, […]). The blue-stained […] was measured (Image-Pro Plus, Media Cybernetics Inc., UK) and analyzed as a percentage (Masson's trichrome-positive area […]).

pSmad3 = target: T1, pSmad3 (Homo sapiens, UniProt P84022); test: Inhibition of phosphorylation of Smad3 (Western blotting); type: cell-based; details: LX-2 cells, 10 ng/ml TGF-β1 24 hours, then peptide 10, 100 or 200 μM 24 hours; effect from 10 μM; FIG. 5
T1 construct: LX-2 (Human hepatic stellate cell line, Millipore #SCC064); host or cells: LX-2 human hepatic stellate cell line
T1 sequence (P84022 whole entry): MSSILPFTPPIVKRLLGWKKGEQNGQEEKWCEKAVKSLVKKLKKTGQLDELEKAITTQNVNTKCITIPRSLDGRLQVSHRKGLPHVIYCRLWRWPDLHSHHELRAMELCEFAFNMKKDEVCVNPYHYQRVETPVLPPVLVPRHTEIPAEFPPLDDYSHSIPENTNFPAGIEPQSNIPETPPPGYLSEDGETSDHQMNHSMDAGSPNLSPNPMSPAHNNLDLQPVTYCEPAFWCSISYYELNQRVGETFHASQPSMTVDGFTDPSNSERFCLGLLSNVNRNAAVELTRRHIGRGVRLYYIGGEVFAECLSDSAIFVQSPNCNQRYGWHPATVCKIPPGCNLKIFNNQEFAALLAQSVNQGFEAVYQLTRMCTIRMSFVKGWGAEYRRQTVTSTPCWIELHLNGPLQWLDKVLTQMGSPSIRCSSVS
Description: (§2) 3×10^6 LX-2 cells were treated with 10 ng/ml TGF-β1 and cultured for 24 hours. The cells were treated with 10, 100, or 200 μM of the peptide of SEQ ID NO: 2 or 10 µM SIS3 (Smad3 inhibitor, Sigma-Aldrich, catalog #566405) in fresh medium and cultured for 24 hours.
(§3) Proteins were lysed using RIPA lysis buffer (25 mM Tris HCl pH 7.6, 150 mM NaCl, 1% NP-40, 1% sodium deoxycholate, 0.1% SDS) containing a protease inhibitor and a phosphatase inhibitor. Proteins were quantified by BCA protein assay, and the expression levels of pSmad2, Smad2, pSmad3, Smad3, TGFβ receptor 1, and GAPDH proteins were determined by Western blotting. For Western blotting, the sample was loaded in the same amount along with a size marker on an 8% SDS PAGE gel, electrophoresed for about 2 hours, and then transferred to a nitrocellulose membrane. The transferred membrane was blocked with 5% skim milk for 1 hour, and allowed to react with primary antibodies at a ratio of 1:1000 overnight. The primary antibodies used were pSmad2 (Cell Signaling, #3108), Smad2 (Cell Signaling, #5339), pSmad3 (Abcam, ab52903), Smad3 (Cell Signaling, #9513), TGFβ receptor1 (Abcam, ab31013), and GAPDH (Cell Signaling, #2118S). […]

pSmad2 = target: T2, pSmad2 (Homo sapiens, UniProt Q15796); test: Inhibition of phosphorylation of Smad2 (Western blotting); type: cell-based; details: LX-2 cells, 10 ng/ml TGF-β1 24 hours, then peptide 10, 100 or 200 μM 24 hours; FIG. 5
T2 construct: LX-2 (Human hepatic stellate cell line, Millipore #SCC064); host or cells: LX-2 human hepatic stellate cell line
T2 sequence (Q15796 whole entry): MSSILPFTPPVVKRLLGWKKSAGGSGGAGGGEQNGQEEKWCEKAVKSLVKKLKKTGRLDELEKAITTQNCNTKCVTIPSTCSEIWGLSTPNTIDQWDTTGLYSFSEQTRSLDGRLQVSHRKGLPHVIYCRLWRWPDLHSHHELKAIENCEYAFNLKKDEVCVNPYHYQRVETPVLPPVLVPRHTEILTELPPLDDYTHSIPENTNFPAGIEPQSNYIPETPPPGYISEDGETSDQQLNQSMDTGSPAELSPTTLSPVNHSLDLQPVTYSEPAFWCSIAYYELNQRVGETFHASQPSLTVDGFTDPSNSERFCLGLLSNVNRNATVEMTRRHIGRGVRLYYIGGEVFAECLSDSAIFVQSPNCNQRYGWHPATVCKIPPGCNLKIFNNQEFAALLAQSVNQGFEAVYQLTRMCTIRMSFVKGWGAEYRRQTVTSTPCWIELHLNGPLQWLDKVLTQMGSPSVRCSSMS
Description: as §2, §3

TGFβ receptor 1 = test: TGFβ receptor expression level (Western blotting); type: cell-based, human; details: LX-2 cells, 10 ng/ml TGF-β1 24 hours, then peptide 10, 100 or 200 μM 24 hours; FIG. 5
Description: as §2, §3

[4] = system: MET markers (E-cadherin, EpCAM) and EMT markers (N-cadherin, Twist1, Snail1); test: Reprogramming effects in cells: MET and EMT marker gene expression (real-time PCR); type: cell-based, human; details: LX-2 cells, 10 ng/ml TGF-beta1 and 100 μM peptide, 24 hours; FIG. 7
Description: The medium was removed, followed by washing with DPBS (Welgene, LB001-02) and cell lysis using 1 ml of a trizol reagent (Ambion, 15596). 250 μl of chloroform was added thereto, the tube was stirred, and centrifugation was performed at 10,000 rpm for 15 minutes. After removing the aqueous layer using a pipette, 550 μl of isopropanol (Sigma, 19516) was added and shaken gently. After centrifugation at 15,000 rpm for 25 minutes, isopropanol was removed, and 1 ml of 75% ethanol was added thereto. After removal of ethanol and drying in air, the pellets were dissolved in DEPC water (Invitrogen, AM9915G). The concentration of RNA was measured using a Nano Drop (Thermo Scientific, NanoDrop One, AZY1913798).
as §1, with “by repeating 40 cycles at” for “by repeating 50 cycles at”, “C. for 15 seconds, 60°” for “C. for 30 seconds, 60°”, “C. for 50 seconds, and” for “C. for 30 seconds, and”, “C. for 15 seconds.” for “C. for 30 seconds.”

[5] = nintedanib 100 mg/kg orally daily
[6] = peptides 30 mg/kg subcutaneously three times a week

Row | Compound | change in body weight after treatment ([1]; day 0 to day 22, treatment from day 7, peptides 30 mg/kg subcutaneously three times a week, nintedanib 100 mg/kg orally daily, FIG. 8b) | fibrous deposition in the lungs (Sirius Red and hematoxylin/phloxine staining) [1, 5] | COL1A2 gene expression [2] | COL3A1 gene expression [2] | area of fibrosis (Sirius Red) [1, 6] | NAFLD activity score [3] | area of fibrosis (Masson's trichrome-positive area) [3] | expression of pSmad3 (pSmad3) | expression of pSmad2 (pSmad2) | expression level of the TGFβ receptor (TGFβ receptor 1) | gene expression of E-cadherin (MET marker) [4] | gene expression of EpCAM (MET marker) [4] | gene expression of N-cadherin (EMT marker) [4] | gene expression of Snail1 (EMT marker) [4] | gene expression of Twist1 (EMT marker) [4]
1 | COC(=O)c1ccc2c(c1)NC(=O)/C2=C(\Nc1ccc(N(C)C(=O)CN2CCN(C)CC2)cc1)c1ccccc1 [nintedanib, reference compound] | increased | some therapeutic effect, but a lot of deposited fibrous tissue was still observed | – | – | – | – | – | – | – | – | – | – | – | – | –
2 | YGLRSKSKKFRRPDIQYPDAT [SEQ ID NO: 1] | – | significantly reduce fibrosis | significantly reduced | significantly reduced | significant reduction | significantly reduced | significantly reduce | – | – | – | – | – | – | – | –
3 | GKCSTRGRKSSRRKK [SEQ ID NO: 2] | – | significantly reduce fibrosis | significantly reduced | significantly reduced | significant reduction | significantly reduced | significantly reduce | completely disappeared | decreased with an increase in the concentration | no change | increased | increased | decreased | decreased | decreased
